Experimental findings from US6936597B2, “Prodrugs of anticancer agents employing substituted aromatic acids” (priority 2001, dated 2005) are described below.

The subject of data set [1] is LX-1 (solid human lung Tumor). As to the kind of experiment: LX-1 tumor xenograft in athymic nude mice. The class given is in vivo. As to conditions: when control median tumor volume reached 1000 mm^3.
Experimental: All PEG conjugated compounds were dissolved (˜15 mg/mL) in sterile saline (0.9%) for injection prior to in vivo drug treatments and were given as their ara-C equivalents (absolute amount of ara-C given).
Athymic nude mice were implanted subcutaneous with a 4-5 mm^3 tissue fragment of LX-1 (solid human lung Tumor) collected from donor mice. The tumor trocar site was observed twice weekly and measured once palpable. The tumor volume for each mouse was determined by measuring two dimensions with calipers and calculated using the formula: tumor volume=(length×width^2)/2. […] The mice were sorted to evenly distribute tumor size, grouped into 4 to 6 mice/group, and ear punched for permanent identification. Drugs were administered intravenously q3d×4 (Day 1, 4, 7 and 10) via the tail vein at an approximate rate of 0.5 mL per minute.
Data set [2] deals with P388/O (murine lymphoid neoplasm) cell line. As to the kind of experiment: In vitro bioassay, cell growth by Alamar Blue. The class given is cell-based. As to conditions: P388/O cells, three days, 37° C., in duplicate, SD ±10%. Here is the method: A series of in vitro assays were conducted to determine the IC50 for unmodified Ara-C and compound 10 using the P388/O (murine lymphoid neoplasm, Southern Research Institute) cell line. The P388/0 cells were grown in RPMI 1640 medium (Whittaker Bioproducts, Walkersville, Md.)+10% FBS (Hyclone Inc., Logan Utah). Bioassays were performed in their respective media containing antibiotics and fungizone.
Ara-C was dissolved in DMSO and diluted to the appropriate concentration in culture media. The individual PEG-Ara-C compound was dissolved in water and diluted to the appropriate concentrations in culture media.
The assays were performed in duplicate in 96-well microtiter cell culture plates. Two fold serial dilution of the compounds were done in the microtiter plates. Cells were detached by incubating with 0.1% Trypsin/Versene at 37°. Trypsin was inactivated by adding the appropriate media for each cell line containing 10% FBS. To each well of the microtiter plates, 10,000 cells were added. After three days, cell growth was measured by addition of a metabolic indicator dye, Alamar Blue, according to the manufacturer's protocol. The IC50 value for the test compound and reference compound are provided above in the Table.
In general terms: The colour change of resazurin is a common sign of viable cells or microbes.

Data set [3] is described as follows: Half-life in rat plasma, measured by disappearance of PEG derivatives. The class given is in vitro ADME. The following applies: 37° C., in duplicate, SD ±10%.

For orientation: IC50 means the concentration that gives 50% inhibition. Low readings indicate higher potency, high ones lower potency.

As to `Nc1ccn([C@@H]2O[C@H](CO)[C@@H](O)[C@@H]2O)c(=O)n1` [Ara-C, cytosine arabinoside, reference compound], the “% Tumor Growth Inhibition” value in data set [1] (100 mg/kg i.v. q3d×4, LX-1 in nude mice) amounted to 26.2%. Besides, 10 nM corresponded to half-maximal inhibition in data set [2] (IC50).
As to “PEG ara-C 4-aminobenzenamide [Compound 6b]”, the “% Tumor Growth Inhibition” value in data set [1] (20 mg/kg (ara-C equivalents) i.v. q3d×4, LX-1 in nude mice) was determined as 12.3%. The compound also returned an IC50 in data set [2] of 1190 nM. Further, the “t1/2 (h) Rat Plasma” value in data set [3] worked out at 75 h.
As to “PEG ara-C 4-aminomethylbenzenamide [Compound 6a]”, in data set [2], inhibition was half-maximal at 122 nM (IC50). Moreover, in data set [3], the “t1/2 (h) Rat Plasma” value amounted to 65 h.
